The values below are quoted from earlier work in PMC9516332 (Frontiers in Oncology, 2022).

Like-named read-outs stand apart in the source and are kept apart here.

The target of data set [1] is T1, panel of 255 wild-type kinases (Homo sapiens, UniProt O14965).
T1 sequence (O14965 1-403): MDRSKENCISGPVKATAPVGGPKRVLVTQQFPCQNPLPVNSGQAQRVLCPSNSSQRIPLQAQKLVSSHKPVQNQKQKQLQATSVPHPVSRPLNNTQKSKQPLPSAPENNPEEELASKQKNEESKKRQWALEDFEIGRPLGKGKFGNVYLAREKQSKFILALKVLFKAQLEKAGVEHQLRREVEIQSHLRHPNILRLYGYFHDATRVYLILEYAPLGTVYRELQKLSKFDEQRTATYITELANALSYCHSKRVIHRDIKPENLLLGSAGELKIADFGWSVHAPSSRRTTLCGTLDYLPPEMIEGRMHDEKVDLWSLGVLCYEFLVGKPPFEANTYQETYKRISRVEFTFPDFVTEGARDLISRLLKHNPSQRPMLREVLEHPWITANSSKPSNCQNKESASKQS
The note with it: 1 µmol/L single concentration, ref DOI: 10.1158/1535-7163.MCT-18-0877, cited from earlier work; for %-inhibition AurA: AurA kinase assay; for %-inhibition AurA/TPX2: AurA/TPX2 kinase assay.

For data set [2], the target named is panel of 255 wild-type kinases (Homo sapiens, UniProt O43683). The conditions noted are these: BUB1/BUB3 kinase assay; 1 µmol/L single concentration; ref DOI: 10.1158/1535-7163.MCT-18-0877; cited from earlier work.
Data set [3] addresses panel of 255 wild-type kinases (Homo sapiens, UniProt P06241). The note with it: kinase FYN [isoform a], 1 µmol/L single concentration, cited from earlier work.
Data set [4] deals with panel of 255 wild-type kinases (Homo sapiens, UniProt P06493). The conditions noted are these: CDC2/CycB1 kinase assay, 1 µmol/L single concentration, cited from earlier work.
The target of data set [5] is panel of 255 wild-type kinases (Homo sapiens, UniProt P08581). The note with it: MET, 1 µmol/L single concentration, cited from earlier work.
Data set [6] addresses panel of 255 wild-type kinases (Homo sapiens, UniProt P49674). The conditions noted are these: kinase CK1ε, 1 µmol/L single concentration, cited from earlier work.
Data set [7] addresses panel of 255 wild-type kinases (Homo sapiens, UniProt P49759). The note with it: kinase CLK1, 1 µmol/L single concentration, cited from earlier work.
Data set [8] addresses panel of 255 wild-type kinases (Homo sapiens, UniProt P50750). The conditions noted are these: CDK9/CycT1 kinase assay, 1 µmol/L single concentration, cited from earlier work.
The target in data set [9] is panel of 255 wild-type kinases (Homo sapiens, UniProt P51812). The note with it: kinase RSK2, 1 µmol/L single concentration, cited from earlier work.
Data set [10] addresses panel of 255 wild-type kinases (Homo sapiens, UniProt Q14012). The note with it: CaMK1α kinase assay, 1 µmol/L single concentration, cited from earlier work.
In data set [11] the target is panel of 255 wild-type kinases (Homo sapiens, UniProt Q15375). The conditions noted are these: kinase EPHA7, 1 µmol/L single concentration, cited from earlier work.
Data set [12] deals with panel of 255 wild-type kinases (Homo sapiens, UniProt Q15418). The note with it: kinase RSK1, 1 µmol/L single concentration, cited from earlier work.
Data set [13] deals with panel of 255 wild-type kinases (Homo sapiens, UniProt Q16288). The conditions noted are these: kinase TRKC, 1 µmol/L single concentration, cited from earlier work.
The target in data set [14] is panel of 255 wild-type kinases (Homo sapiens, UniProt Q16654). The note with it: kinase PDHK4, 1 µmol/L single concentration, cited from earlier work.
For data set [15], the target named is panel of 255 wild-type kinases (Homo sapiens, UniProt Q7KZI7). The conditions noted are these: MARK2, 1 µmol/L single concentration, cited from earlier work.
Data set [16] deals with panel of 255 wild-type kinases (Homo sapiens, UniProt Q96GD4). The note with it: AurB kinase assay, 1 µmol/L single concentration, cited from earlier work.
In data set [17] the target is panel of 255 wild-type kinases (Homo sapiens, UniProt Q96SB4). The note with it: kinase SRPK1, 1 µmol/L single concentration, cited from earlier work.
The target in data set [18] is panel of 255 wild-type kinases (Homo sapiens, UniProt Q9H0K1). The note with it: kinase QIK, 1 µmol/L single concentration, cited from earlier work.
The target of data set [19] is panel of 255 wild-type kinases (Homo sapiens, UniProt Q8N4C8). The note with it: MINK, 1 µmol/L single concentration, cited from earlier work.
Where [20] appears, read: ref DOI: 10.1158/1535-7163.MCT-18-0877.
The mark [21] stands for this setting: ref DOI: 10.1371/journal.pone.0092146.

For `CCc1cc2c(cc1N1CCC(N3CCOCC3)CC1)C(C)(C)c1[nH]c3cc(C#N)ccc3c1C2=O` [alectinib], in [1], the “%-inhibition AurA” value is 5% and the “%-inhibition AurA/TPX2” value is -3%. The “%-inhibition BUB1/BUB3” value in [2] was 2%. Also, in data set [3] (setting [20]), the “%-inhibition at 1 µmol/L, FYN [isoform a]” value (“%-inhibition … [isoform a]” for short) is listed as 15%. Besides, in [4] (setting [20]), the “%-inhibition CDC2/CycB1” value is listed as 3.54%. In data set [5] (setting [20]), the “%-inhibition, MET” value is given as 8%. For the same compound, the “%-inhibition at 1 µmol/L, CK1ε” value in data set [6] (setting [20]) is 4.48%. In addition, the “%-inhibition at 1 µmol/L, CLK1” value in [7] (setting [20]) was 43%. Further, the “%-inhibition CDK9/CycT1” value in data set [8] (setting [20]) is recorded as -0.0188%. Also, the “%-inhibition at 1 µmol/L, RSK2” value in [9] (setting [20]) was 14%. Moreover, the “%-inhibition CaMK1α” value in data set [10] (setting [20]) is reported as 2.11%. For the same compound, the “%-inhibition at 1 µmol/L, EPHA7” value in data set [11] (setting [20]) is 1.58%. Further, the “%-inhibition at 1 µmol/L, RSK1” value in data set [12] (setting [20]) was 15%. Also, in [13] (setting [20]), the “%-inhibition at 1 µmol/L, TRKC” value was 31%. Besides, the “%-inhibition at 1 µmol/L, PDHK4” value in [14] (setting [20]) was 1.7%. In data set [15] (setting [20]), the “%-inhibition, MARK2” value is on record as 5.66%. In data set [16] (setting [20]), the “%-inhibition AurB” value is reported as 9%. In addition, the “%-inhibition at 1 µmol/L, SRPK1” value in data set [17] (setting [20]) is given as 83%. Also, the “%-inhibition at 1 µmol/L, QIK” value in [18] (setting [20]) is on record as 3%.
As for `Cc1cc(Nc2ncc(Cl)c(Nc3ccccc3S(=O)(=O)C(C)C)n2)c(OC(C)C)cc1C1CCNCC1` [ceritinib], in data set [1], the “%-inhibition AurA” value is 12% and the “%-inhibition AurA/TPX2” value was 2.84%. Further, the “%-inhibition BUB1/BUB3” value in data set [2] is on record as 5.67%. Also, the “%-inhibition … [isoform a]” value in [3] (setting [20]) is 4%. For the same compound, the “%-inhibition CDC2/CycB1” value in data set [4] (setting [20]) was 2.5%. Moreover, the “%-inhibition, MET” value in data set [5] (setting [20]) is given as 16%. In addition, in [6] (setting [20]), the “%-inhibition at 1 µmol/L, CK1ε” value was 5%. Besides, the “%-inhibition at 1 µmol/L, CLK1” value in data set [7] (setting [20]) is listed as 99%. Further, the “%-inhibition CDK9/CycT1” value in data set [8] (setting [20]) is 0.194%. Also, in data set [9] (setting [20]), the “%-inhibition at 1 µmol/L, RSK2” value is reported as 83%. Besides, in data set [10] (setting [20]), the “%-inhibition CaMK1α” value is on record as 37%. Also, the “%-inhibition at 1 µmol/L, EPHA7” value in data set [11] (setting [20]) is listed as 4.64%. Also, in data set [12] (setting [20]), the “%-inhibition at 1 µmol/L, RSK1” value was 75%. For the same compound, in data set [13] (setting [20]), the “%-inhibition at 1 µmol/L, TRKC” value is 9%. Also, the “%-inhibition at 1 µmol/L, PDHK4” value in [14] (setting [20]) is 2.55%. Further, the “%-inhibition, MARK2” value in [15] (setting [20]) is 4%. The “%-inhibition, MINK” value in [19] (setting [20]) is on record as 1.46%. In addition, the “%-inhibition AurB” value in [16] (setting [20]) is given as 8%. Besides, in data set [18] (setting [20]), the “%-inhibition at 1 µmol/L, QIK” value was 7.41%.
For `C[C@@H](Oc1cc(-c2cnn(C3CCNCC3)c2)cnc1N)c1c(Cl)ccc(F)c1Cl` [crizotinib], the “%-inhibition … [isoform a]” value in data set [3] (setting [21]) was 42%. For the same compound, in data set [4] (setting [21]), the “%-inhibition CDC2/CycB1” value is on record as 19%. Besides, the “%-inhibition at 1 µmol/L, CK1ε” value in data set [6] (setting [21]) was 4%. Besides, in data set [7] (setting [21]), the “%-inhibition at 1 µmol/L, CLK1” value is 13%. In addition, in data set [8] (setting [21]), the “%-inhibition CDK9/CycT1” value is 5%. In addition, the “%-inhibition at 1 µmol/L, RSK2” value in data set [9] (setting [21]) is on record as 0.217%. For the same compound, in data set [10] (setting [21]), the “%-inhibition CaMK1α” value is listed as 0.734%. Besides, in data set [12] (setting [21]), the “%-inhibition at 1 µmol/L, RSK1” value is given as -5%. Further, the “%-inhibition at 1 µmol/L, PDHK4” value in data set [14] (setting [21]) is -3.76%. Further, the “%-inhibition, MARK2” value in [15] (setting [21]) is reported as 26%. In addition, the “%-inhibition, MINK” value in data set [19] (setting [21]) is given as 0%. In [17] (setting [21]), the “%-inhibition at 1 µmol/L, SRPK1” value is listed as 4.55%. Moreover, the “%-inhibition at 1 µmol/L, QIK” value in data set [18] (setting [21]) is listed as 38%.
As for `CC(C)(C)c1nc(-c2cccc(NS(=O)(=O)c3c(F)cccc3F)c2F)c(-c2ccnc(N)n2)s1` [dabrafenib], in data set [5] (setting [21]), the “%-inhibition, MET” value is reported as 27%. Also, in data set [6] (setting [21]), the “%-inhibition at 1 µmol/L, CK1ε” value is given as 10%. For the same compound, the “%-inhibition at 1 µmol/L, CLK1” value in data set [7] (setting [21]) is 7%. Also, in data set [11] (setting [21]), the “%-inhibition at 1 µmol/L, EPHA7” value is on record as 13%. For the same compound, the “%-inhibition at 1 µmol/L, TRKC” value in [13] (setting [21]) is reported as 81%. Further, in data set [14] (setting [21]), the “%-inhibition at 1 µmol/L, PDHK4” value was -1%. For the same compound, in [15] (setting [21]), the “%-inhibition, MARK2” value is listed as 2.85%. In data set [19] (setting [21]), the “%-inhibition, MINK” value is on record as -0.772%. Besides, the “%-inhibition AurB” value in data set [16] (setting [21]) was 39%. Further, the “%-inhibition at 1 µmol/L, QIK” value in data set [18] (setting [21]) is listed as 80%.
For `C=CC(=O)N1CCC[C@@H](n2nc(-c3ccc(Oc4ccccc4)cc3)c3c(N)ncnc32)C1` [ibrutinib], in data set [1], the “%-inhibition AurA” value was 30% and the “%-inhibition AurA/TPX2” value is given as -2.33%. In [2], the “%-inhibition BUB1/BUB3” value is given as 5%. For the same compound, the “%-inhibition … [isoform a]” value in data set [3] (setting [20]) is reported as 93%. For the same compound, the “%-inhibition CDC2/CycB1” value in [4] (setting [20]) is listed as -1%. Moreover, the “%-inhibition, MET” value in data set [5] (setting [20]) is 12%. The “%-inhibition at 1 µmol/L, CK1ε” value in [6] (setting [20]) is 50%. Besides, the “%-inhibition at 1 µmol/L, RSK2” value in data set [9] (setting [20]) is 7.41%. For the same compound, the “%-inhibition CaMK1α” value in data set [10] (setting [20]) was 14%. Moreover, in [11] (setting [20]), the “%-inhibition at 1 µmol/L, EPHA7” value was 7%. The “%-inhibition at 1 µmol/L, RSK1” value in data set [12] (setting [20]) is 5.47%. Moreover, in [13] (setting [20]), the “%-inhibition at 1 µmol/L, TRKC” value is 24%. In data set [15] (setting [20]), the “%-inhibition, MARK2” value is on record as 2.67%. For the same compound, in data set [19] (setting [20]), the “%-inhibition, MINK” value is listed as -6.41%. Moreover, in [16] (setting [20]), the “%-inhibition AurB” value was -1.1%. In data set [17] (setting [20]), the “%-inhibition at 1 µmol/L, SRPK1” value is on record as 1.2%. For the same compound, the “%-inhibition at 1 µmol/L, QIK” value in data set [18] (setting [20]) was 4.7%.
